In this test the target is recombinant DYRK1A kinase (Homo sapiens (Human), UniProt Q13627). Kind of test: DYRK1A kinase assay (Ser/Thr 18 peptide Z-lyte FRET assay). Particulars: recombinant DYRK1A 0.25 µg/mL, ATP 15 µM, Ser/Thr peptide 18 4 µM, one hour at room temperature; table head prints EC50, method says IC50. In kind it is biochemical. An outline of the steps:
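Recombinant human DYRK1A (0.25 µg/mL) with 15 µM ATP and 4 µM Ser/Thr 18 peptide was incubated 1 h at room temperature with compound (11-point, 10 µM top), in duplicate. Z-lyte FRET read-out (coumarin/fluorescein emission ratio) was converted to percent phosphorylation; IC50 from non-linear regression.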
A word on the EC50: it is the concentration that produces a half-maximal response. Turning to `Cc1nc2ncc(-c3ccn4nc(NC5CCN(C6COC6)CC5)ncc34)cc2n1CC(F)F` [Compound 1889, 5-(1-(2,2-Difluoroethyl)-2-methyl-1H-imidazo[4,5-b]pyridin-6-yl)-N-(1-(oxetan-3-yl)piperidin-4-yl)pyrrolo[2,1-f][1,2,4]triazin-2-amine], the EC50 was 7 nM.

As for `C[C@]1(O)CC[C@H](Nc2ncc3c(-c4ccc5nnn(CC(F)F)c5c4)ccn3n2)CC1` [Compound 1890, trans-4-((5-(1-(2,2-Difluoroethyl)-1H-benzo[d][1,2,3]triazol-6-yl)pyrrolo [2,1-f][1,2,4]triazin-2-yl)amino)-1-methylcyclohexan-1-o1], the EC50 stood at 14 nM.

Regarding `C[C@]1(O)CC[C@H](Nc2ncc3c(-c4ccn5nccc5c4)ccn3n2)CC1` [Compound 1891, trans-1-Methyl-4-((5-(pyrazolo[1,5-a]pyridin-5-yl)pyrrolo[2,1-f][1,2,4]triazin-2-yl)amino)cyclohexan-1-ol], the concentration for a half-maximal effect (EC50) worked out at 11 nM.

With `Cc1nc2ccc(-c3ccn4nc(N[C@H]5C[C@@H](N6CCOCC6)C5)ncc34)nc2n1CC(F)F` [Compound 1892, 5-(3-(2,2-Difluoroethyl)-2-methyl-3H-imidazo[4,5-b]pyridin-5-yl)-N-(cis-3-morpholinocyclobutyl)pyrrolo[2,1-f][1,2,4]triazin-2-amine], the EC50 stood at 2 nM.

`Cc1nc2ccc(-c3ccn4nc(N[C@H]5C[C@H](N6CCOCC6)C5)ncc34)nc2n1CC(F)F` [Compound 1893, 5-(3-(2,2-Difluoroethyl)-2-methyl-3H-imidazo[4,5-b]pyridin-5-yl)-N-(trans-3-morpholinocyclobutyl)pyrrolo[2,1-f][1,2,4]triazin-2-amine]: the EC50 turned out to be 5 nM.

In the case of `Cc1nc2ccc(-c3ccn4nc(N[C@H]5CC[C@@H](CN6CC(F)C6)CC5)ncc34)nc2n1CC(F)F` [Compound 1894, 5-(3-(2,2-Difluoroethyl)-2-methyl-3H-imidazo[4,5-b]pyridin-5-yl)-N-(cis-4-((3-fluoroazetidin-1-yl)methyl)cyclohexyl)pyrrolo [2,1-f] [1,2,4]triazin-2-amine], the EC50 stood at 11 nM.

`Cc1nc2ccc(-c3ccn4nc(N[C@H]5CC[C@H](C(=O)N(C)C)CC5)ncc34)nc2n1CC(F)F` [Compound 1895, trans-4-((5-(3-(2,2-Difluoroethyl)-2-methyl-3H-imidazo[4,5-b]pyridin-5-yl)pyrrolo[2,1-f] [1,2,4]triazin-2-yl)amino)-N,N-dimethylcyclohexane-1-carboxamide]: the EC50 is 3 nM.

Consider `Cc1nc2ccc(-c3ccn4nc(N[C@H]5CC[C@@H](C(=O)N6CCC6)CC5)ncc34)nc2n1CC(F)F` [Compound 1896, azetidin-1-yl(cis-4-((5-(3-(2,2-difluoroethyl)-2-methyl-3H-imidazo[4,5-b]pyridin-5-yl)pyrrolo[2,1-f][1,2,4]triazin-2-yl)amino)cyclohexyl)methanone], for which the EC50 was 3 nM.

Consider `CC(=O)N[C@H]1CC[C@@H](Nc2ncc3c(-c4ccc5nc(C)n(CC(F)F)c5n4)ccn3n2)CC1` [Compound 1898, N-(cis-4-((5-(3-(2,2-Difluoroethyl)-2-methyl-3H-imidazo [4,5-b]pyridin-5-yl)pyrrolo[2,1-f] [1,2,4]triazin-2-yl)amino)cyclohexyl)acetamide], for which the EC50 was 3 nM.

Regarding `CC(=O)N1CC2(CCC(Nc3ncc4c(-c5ccc6nc(C)n(CC(F)F)c6n5)ccn4n3)CC2)C1` [Compound 1899, 1-(7-((5-(3-(2,2-difluoroethyl)-2-methyl-3H-imidazo[4,5-b]pyridin-5-yl)pyrrolo[2,1-f][1,2,4]triazin-2-yl)amino)-2-azaspiro[3.5]nonan-2-yl)ethan-1-one], the EC50 stood at 1 nM.

For `Cc1nc2ccc(-c3ccn4nc(N[C@@H]5CN(C)C[C@@H]5F)ncc34)nc2n1CC(F)F` [Compound 1900], the EC50 was found to be 5 nM.

Consider `Cc1nc2ccc(-c3ccn4nc(N[C@H]5CN(C)C[C@@H]5F)ncc34)nc2n1CC(F)F` [Compound 1901, 5-(3-(2,2-Difluoroethyl)-2-methyl-3H-imidazo[4,5-b]pyridin-5-yl)-N-((3S,4S)-4-fluoro-1-methylpyrrolidin-3-yl)pyrrolo [2,1-f] [1,2,4]triazin-2-amine], for which the EC50 was determined as 4 nM.

`Cc1nc2ccc(-c3ccn4nc(N[C@@H]5CN(C)C[C@H]5F)ncc34)nc2n1CC(F)F` [Compound 1902]: the EC50 worked out at 6 nM.

Consider `Cc1nc2ccc(-c3ccn4nc(N[C@H]5CN(C)C[C@H]5F)ncc34)nc2n1CC(F)F` [Compound 1903, 5-(3-(2,2-Difluoroethyl)-2-methyl-3H-imidazo[4,5-b]pyridin-5-yl)-N-((3S,4R)-4-fluoro-1-methylpyrrolidin-3-yl)pyrrolo[2,1-f][1,2,4]triazin-2-amine], for which the EC50 is 12 nM.

With `Cc1nc2ccc(-c3ccn4nc(N[C@@H]5COC[C@H]5O)ncc34)nc2n1CC(F)F` [Compound 1906, (3S,4R)-4-((5-(3-(2,2-Difluoroethyl)-2-methyl-3H-imidazo [4,5-b]pyridin-5-yl)pyrrolo[2,1-f][1,2,4]triazin-2-yl)amino)tetrahydrofuran-3-ol], the EC50 was 4 nM.

Turning to `Cc1nc2ccc(-c3ccn4nc(N[C@@H]5CCN(CC(C)C)C[C@@H]5F)ncc34)nc2n1CC(F)F` [Compound 1908, 5-(3-(2,2-Difluoroethyl)-2-methyl-3H-imidazo[4,5-b]pyridin-5-yl)-N-((3S,4R)-3-fluoro-1-isobutylpiperidin-4-yl)pyrrolo[2,1-f] [1,2,4]triazin-2-amine], the concentration for a half-maximal effect (EC50) was 7 nM.

Regarding `Cc1nc2ccc(-c3ccn4nc(N[C@H]5CCN(CC(C)C)C[C@H]5F)ncc34)nc2n1CC(F)F` [Compound 1909, 5-(3-(2,2-difluoroethyl)-2-methyl-3H-imidazo[4,5-b]pyridin-5-yl)-N-((3R,4S)-3-fluoro-1-isobutylpiperidin-4-yl)pyrrolo[2,1-f][1,2,4]triazin-2-amine], the EC50 came to 5 nM.

For the molecule `Cc1nc2ccc(-c3ccn4nc(N[C@H]5CCN(C)C(=O)C5)ncc34)nc2n1CC(F)F` [Compound 1911, (S)-4-((5-(3-(2,2-Difluoroethyl)-2-methyl-3H-imidazo [4,5-b]pyridin-5-yl)pyrrolo[2,1-f] [1,2,4]triazin-2-yl)amino)-1-methylpiperidin-2-one], the EC50 was 4 nM.

Turning to `Cc1nc2ccc(-c3ccn4nc(N[C@@H]5CCOC[C@H]5F)ncc34)nc2n1CC(F)F` [Compound 1912, 5-(3-(2,2-Difluoroethyl)-2-methyl-3H-imidazo[4,5-b]pyridin-5-yl)-N-((3S,4R)-3-fluorotetrahydro-2H-pyran-4-yl)pyrrolo[2,1-f] [1,2,4]triazin-2-amine], the 50% effective concentration (EC50) came to 7 nM.

Turning to `Cc1nc2ccc(-c3ccn4nc(N[C@@H]5[C@@H]6COC[C@@H]65)ncc34)nc2n1CC(F)F` [Compound 1914, N-((lR,5S,6s)-3-Oxabicyclo[3.1.0]hexan-6-yl)-5-(3-(2,2-difluoroethyl)-2-methyl-3H-imidazo[4,5-b]pyridin-5-yl)pyrrolo[2,1-f][1,2,4]triazin-2-amine], the concentration giving a half-maximal response (EC50) worked out at 5 nM.

Consider `Cc1nc2ncc(-c3ccn4nc(NC5CCC(F)(F)CC5)ncc34)cc2n1Cc1nnc([C@@H](C)F)o1` [Compound 1915, (R)-N-(4,4-Difluorocyclohexyl)-5-(1-((5-(1-fluoroethyl)-1,3,4-oxadiazol-2-yl)methyl)-2-methyl-1H-imidazo[4,5-b]pyridin-6-yl)pyrrolo[2,1-f][1,2,4]triazin-2-amine], for which the EC50 was 9 nM.

Consider `Cc1nc2ccc(-c3ccn4nc(NC5CCNCC5)ncc34)nc2n1CC(F)F` [Compound 1916, 5-(3-(2,2-difluoroethyl)-2-methyl-3H-imidazo[4,5-b]pyridin-5-yl)-N-(piperidin-4-yl)pyrrolo[2,1-f][1,2,4]triazin-2-amine], for which the concentration giving a half-maximal response (EC50) was 5 nM.

For `Cc1nc2ccc(-c3ccn4nc(NC5CCN(C(=O)[C@@H]6CC6(F)F)CC5)ncc34)nc2n1CC(F)F` [Compound 1917, (S)-(2,2-Difluorocyclopropyl)(4-((5-(3-(2,2-difluoroethyl)-2-methyl-3H-imidazo[4,5-b]pyridin-5-yl)pyrrolo[2,1-f] [1,2,4]triazin-2-yl)amino)piperidin-1-yl)methanone], the EC50 came to 9 nM.

For `Cc1nc2ccc(-c3ccn4nc(NC5CCN(C(=O)[C@H]6CC6(F)F)CC5)ncc34)nc2n1CC(F)F` [Compound 1918, (R)-(2,2-Difluorocyclopropyl)(4-((5-(3-(2,2-difluoroethyl)-2-methyl-3H-imidazo[4,5-b]pyridin-5-yl)pyrrolo[2,1-f] [1,2,4]triazin-2-yl)amino)piperidin-1-yl)methanone], the concentration giving a half-maximal response (EC50) worked out at 7 nM.

Take `CC(=O)N[C@]1(C)C[C@@H](Nc2ncc3c(-c4ccc5nc(C)n(CC(F)F)c5c4)ccn3n2)C1` [Compound 1920, N-((1r,3r)-3-((5-(1-(2,2-Difluoroethyl)-2-methyl-1H-benzo[d]imidazol-6-yl)pyrrolo[2,1-f] [1,2,4]triazin-2-yl)amino)-1-methylcyclobutyl)acetamide]: the concentration giving a half-maximal response (EC50) is 1 nM.

`CC(=O)N1C[C@@H](F)[C@@H](Nc2ncc3c(-c4ccc5nc(C)n(CC(F)F)c5n4)ccn3n2)C1` [Compound 1940, 1-((3S,4R)-3-((5-(3-(2,2-Difluoroethyl)-2-methyl-3H-imidazo[4,5-b]pyridin-5-yl)pyrrolo[2,1-f] [1,2,4]triazin-2-yl)amino)-4-fluoropyrrolidin-1-yl)ethan-1-one]: the EC50 stood at 7 nM.

As to `CC(=O)N1C[C@H](F)[C@H](Nc2ncc3c(-c4ccc5nc(C)n(CC(F)F)c5n4)ccn3n2)C1` [Compound 1941, 1-((3R,4S)-3-((5-(3-(2,2-Difluoroethyl)-2-methyl-3H-imidazo[4,5-b]pyridin-5-yl)pyrrolo[2,1-f] [1,2,4]triazin-2-yl)amino)-4-fluoropyrrolidin-1-yl)ethan-1-one], the concentration giving a half-maximal response (EC50) worked out at 4 nM.

(Values after US20230312605A1, “PYRROLO[2,1-F][1,2,4]TRIAZINES AND PREPARATION AND USES THEREOF” (BioSplice Therapeutics, Inc., priority 2021, published 2023).)
